Source: patent publication US10710978B2, “STK4 inhibitors for treatment of hematologic malignancies” (Dana-Farber Cancer Institute, Inc., priority 2015, dated 2020)
Read-outs that look alike come from different tables or passages of the source.

Legend:
CaMK2d = CaMK2d (Homo sapiens (Human), UniProt Q13557); test: KiNativ assay; format: binding; details: H929 live cell
Protocol: (§1) Biochemical IC50s of the compounds of the present disclosure against various kinases were measured in a KiNativ assay. Compounds were screened in duplicate at 10 μM in H929 live cell. IC50 was measured via Mass spectroscopy (MS).

MAP3K2, MAP3K3 = test: KiNativ assay; format: binding; details: H929 live cell
Protocol: as §1

SNRK = SNRK (Homo sapiens (Human), UniProt Q9NRH2); test: KiNativ assay; format: binding; details: H929 live cell
Protocol: as §1

MAP2K4 = MAP2K4 (Homo sapiens (Human), UniProt P45985); test: KiNativ assay; format: binding; details: H929 live cell
Protocol: as §1

GSK3A = GSK3A (Homo sapiens (Human), UniProt P49840); test: KiNativ assay; format: binding; details: H929 live cell
Protocol: as §1

p38d, p38g = test: KiNativ assay; format: binding; details: H929 live cell
Protocol: as §1

TLK2 = TLK2 (Homo sapiens (Human), UniProt Q86UE8); test: KiNativ assay; format: binding; details: H929 live cell
Protocol: as §1

BARK1 = BARK1 (Homo sapiens (Human), UniProt P25098); test: KiNativ assay; format: binding; details: H929 live cell
Protocol: as §1

MSK1 domain1 = MSK1 domain1 (Homo sapiens (Human), UniProt O75582); test: KiNativ assay; format: binding; details: H929 live cell
Protocol: as §1

SRPK1 = SRPK1 (Homo sapiens (Human), UniProt Q96SB4); test: KiNativ assay; format: binding; details: H929 live cell
Protocol: as §1

ATR = ATR (Homo sapiens (Human), UniProt Q13535); test: KiNativ assay; format: binding; details: H929 live cell
Protocol: as §1

MARK3 = MARK3 (Homo sapiens (Human), UniProt P27448); test: KiNativ assay; format: binding; details: H929 live cell
Protocol: as §1

GCN2 domain2 = GCN2 domain2 (Homo sapiens (Human), UniProt Q9P2K8); test: KiNativ assay; format: binding; details: H929 live cell
Protocol: as §1

AurA = AurA (Homo sapiens (Human), UniProt O14965); test: KiNativ assay; format: binding; details: H929 live cell
Protocol: as §1

FYN, SRC, YES = test: KiNativ assay; format: binding; details: H929 live cell
Protocol: as §1

MARK2, MARK3 = test: KiNativ assay; format: binding; details: H929 live cell
Protocol: as §1

PIK3CB = PIK3CB (Homo sapiens (Human), UniProt P42338); test: KiNativ assay; format: binding; details: H929 live cell
Protocol: as §1

NEK7 = NEK7 (Homo sapiens (Human), UniProt Q8TDX7); test: KiNativ assay; format: binding; details: H929 live cell
Protocol: as §1

PIP4K2C = PIP4K2C (Homo sapiens (Human), UniProt Q8TBX8); test: KiNativ assay; format: binding; details: H929 live cell
Protocol: as §1

CDK2 = CDK2 (Homo sapiens (Human), UniProt P24941); test: KiNativ assay; format: binding; details: H929 live cell
Protocol: as §1

NEK8 = NEK8 (Homo sapiens (Human), UniProt Q86SG6); test: KiNativ assay; format: binding; details: H929 live cell
Protocol: as §1

MLK3 = MLK3 (Homo sapiens (Human), UniProt Q16584); test: KiNativ assay; format: binding; details: H929 live cell
Protocol: as §1

NEK1 = NEK1 (Homo sapiens (Human), UniProt Q96PY6); test: KiNativ assay; format: binding; details: H929 live cell
Protocol: as §1

CHK2 = CHK2 (Homo sapiens (Human), UniProt O96017); test: KiNativ assay; format: binding; details: H929 live cell
Protocol: as §1

MAP3K1 = MAP3K1 (Homo sapiens (Human), UniProt Q13233); test: KiNativ assay; format: binding; details: H929 live cell
Protocol: as §1

NDR2 = NDR2 (Homo sapiens (Human), UniProt Q9Y2H1); test: KiNativ assay; format: binding; details: H929 live cell
Protocol: as §1

CLK2 = CLK2 (Homo sapiens (Human), UniProt P49760); test: KiNativ assay; format: binding; details: H929 live cell
Protocol: as §1

STK4 (MST1) = STK4 (MST1) (Homo sapiens (Human), UniProt Q13043); test: Z-lyte biochemical IC50 assay (Invitrogen); details: ATP concentration matched the Km
Protocol: (§2) STK4 (MST1), STK3 (MST2); STK24 (MST3) and MST4 Assays
(§3) Biochemical IC50s were measured at Invitrogen using Z-lyte technology. Briefly, for STK4, the 2×STK4 (MST1)/Ser/Thr 07 mixture was prepared in 50 mM HEPES pH 7.5, 0.01% BRIJ35, 10 mM MgCl2, 1 mM EGTA. The final 10 μL Kinase Reaction consisted of 6.25-160 ng STK4 (MST1) and 2 μM Ser/Thr 07 in 50 mM HEPES pH 7.5, 0.01% BRIJ-35, 10 mM MgCl2, 1 mM EGTA. After the 1 hour Kinase Reaction incubation, 5 μL of a 1:100000 dilution of Development Reagent A was added. Compounds were screened in a 10 point titration with 3-fold serial dilutions starting at a concentration of 10 μM. The biochemical IC50s against other STK family members were measured similarly. The ATP concentration used matched the Km for each kinase.

STK24 (MST3) = STK24 (MST3) (Homo sapiens (Human), UniProt Q9Y6E0); test: Z-lyte biochemical IC50 assay (Invitrogen); details: ATP concentration matched the Km
Protocol: as §2, §3

AurA, sequence (O14965 whole entry): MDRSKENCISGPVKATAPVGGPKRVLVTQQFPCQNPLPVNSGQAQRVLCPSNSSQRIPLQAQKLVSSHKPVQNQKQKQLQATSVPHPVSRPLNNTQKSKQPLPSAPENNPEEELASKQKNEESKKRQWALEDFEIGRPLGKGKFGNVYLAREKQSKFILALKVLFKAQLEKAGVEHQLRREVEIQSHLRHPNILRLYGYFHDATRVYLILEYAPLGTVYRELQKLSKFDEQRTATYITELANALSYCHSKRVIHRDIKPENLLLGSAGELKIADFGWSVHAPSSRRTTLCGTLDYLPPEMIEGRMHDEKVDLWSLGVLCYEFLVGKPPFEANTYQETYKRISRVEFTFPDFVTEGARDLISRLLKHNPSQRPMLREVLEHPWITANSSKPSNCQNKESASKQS
PIP4K2C, sequence (Q8TBX8 whole entry): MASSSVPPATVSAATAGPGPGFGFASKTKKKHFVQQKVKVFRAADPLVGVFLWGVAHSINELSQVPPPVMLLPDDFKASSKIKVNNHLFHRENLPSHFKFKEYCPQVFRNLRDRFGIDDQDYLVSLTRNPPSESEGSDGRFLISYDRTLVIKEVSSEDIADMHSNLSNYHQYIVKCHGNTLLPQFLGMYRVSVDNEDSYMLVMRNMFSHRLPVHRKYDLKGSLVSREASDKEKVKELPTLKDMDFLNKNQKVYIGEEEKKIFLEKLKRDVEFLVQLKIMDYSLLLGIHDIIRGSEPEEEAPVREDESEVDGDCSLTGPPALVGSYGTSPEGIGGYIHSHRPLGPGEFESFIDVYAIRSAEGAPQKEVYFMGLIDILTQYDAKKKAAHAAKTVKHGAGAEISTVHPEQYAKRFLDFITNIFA
BARK1, sequence (P25098 whole entry): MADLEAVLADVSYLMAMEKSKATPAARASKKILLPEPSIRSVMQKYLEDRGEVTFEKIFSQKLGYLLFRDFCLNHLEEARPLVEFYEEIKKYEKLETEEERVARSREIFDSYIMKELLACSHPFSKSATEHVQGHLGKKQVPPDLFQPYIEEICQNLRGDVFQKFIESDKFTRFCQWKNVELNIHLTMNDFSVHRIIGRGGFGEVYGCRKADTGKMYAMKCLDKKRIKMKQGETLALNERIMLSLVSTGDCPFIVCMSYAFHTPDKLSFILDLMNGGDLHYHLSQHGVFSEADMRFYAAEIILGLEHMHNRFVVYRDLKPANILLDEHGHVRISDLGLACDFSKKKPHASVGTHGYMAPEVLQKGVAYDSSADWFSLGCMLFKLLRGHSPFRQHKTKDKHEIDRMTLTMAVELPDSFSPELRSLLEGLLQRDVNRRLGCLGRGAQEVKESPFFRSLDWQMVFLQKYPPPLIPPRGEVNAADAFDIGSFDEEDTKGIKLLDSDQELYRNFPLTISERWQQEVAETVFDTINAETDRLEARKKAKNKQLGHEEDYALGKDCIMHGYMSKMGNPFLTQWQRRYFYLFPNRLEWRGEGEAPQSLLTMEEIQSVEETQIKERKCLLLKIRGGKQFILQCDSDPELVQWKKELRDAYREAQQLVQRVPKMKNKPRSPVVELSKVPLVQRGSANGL
GCN2 domain2, sequence (Q9P2K8 whole entry, the tested form may be a part): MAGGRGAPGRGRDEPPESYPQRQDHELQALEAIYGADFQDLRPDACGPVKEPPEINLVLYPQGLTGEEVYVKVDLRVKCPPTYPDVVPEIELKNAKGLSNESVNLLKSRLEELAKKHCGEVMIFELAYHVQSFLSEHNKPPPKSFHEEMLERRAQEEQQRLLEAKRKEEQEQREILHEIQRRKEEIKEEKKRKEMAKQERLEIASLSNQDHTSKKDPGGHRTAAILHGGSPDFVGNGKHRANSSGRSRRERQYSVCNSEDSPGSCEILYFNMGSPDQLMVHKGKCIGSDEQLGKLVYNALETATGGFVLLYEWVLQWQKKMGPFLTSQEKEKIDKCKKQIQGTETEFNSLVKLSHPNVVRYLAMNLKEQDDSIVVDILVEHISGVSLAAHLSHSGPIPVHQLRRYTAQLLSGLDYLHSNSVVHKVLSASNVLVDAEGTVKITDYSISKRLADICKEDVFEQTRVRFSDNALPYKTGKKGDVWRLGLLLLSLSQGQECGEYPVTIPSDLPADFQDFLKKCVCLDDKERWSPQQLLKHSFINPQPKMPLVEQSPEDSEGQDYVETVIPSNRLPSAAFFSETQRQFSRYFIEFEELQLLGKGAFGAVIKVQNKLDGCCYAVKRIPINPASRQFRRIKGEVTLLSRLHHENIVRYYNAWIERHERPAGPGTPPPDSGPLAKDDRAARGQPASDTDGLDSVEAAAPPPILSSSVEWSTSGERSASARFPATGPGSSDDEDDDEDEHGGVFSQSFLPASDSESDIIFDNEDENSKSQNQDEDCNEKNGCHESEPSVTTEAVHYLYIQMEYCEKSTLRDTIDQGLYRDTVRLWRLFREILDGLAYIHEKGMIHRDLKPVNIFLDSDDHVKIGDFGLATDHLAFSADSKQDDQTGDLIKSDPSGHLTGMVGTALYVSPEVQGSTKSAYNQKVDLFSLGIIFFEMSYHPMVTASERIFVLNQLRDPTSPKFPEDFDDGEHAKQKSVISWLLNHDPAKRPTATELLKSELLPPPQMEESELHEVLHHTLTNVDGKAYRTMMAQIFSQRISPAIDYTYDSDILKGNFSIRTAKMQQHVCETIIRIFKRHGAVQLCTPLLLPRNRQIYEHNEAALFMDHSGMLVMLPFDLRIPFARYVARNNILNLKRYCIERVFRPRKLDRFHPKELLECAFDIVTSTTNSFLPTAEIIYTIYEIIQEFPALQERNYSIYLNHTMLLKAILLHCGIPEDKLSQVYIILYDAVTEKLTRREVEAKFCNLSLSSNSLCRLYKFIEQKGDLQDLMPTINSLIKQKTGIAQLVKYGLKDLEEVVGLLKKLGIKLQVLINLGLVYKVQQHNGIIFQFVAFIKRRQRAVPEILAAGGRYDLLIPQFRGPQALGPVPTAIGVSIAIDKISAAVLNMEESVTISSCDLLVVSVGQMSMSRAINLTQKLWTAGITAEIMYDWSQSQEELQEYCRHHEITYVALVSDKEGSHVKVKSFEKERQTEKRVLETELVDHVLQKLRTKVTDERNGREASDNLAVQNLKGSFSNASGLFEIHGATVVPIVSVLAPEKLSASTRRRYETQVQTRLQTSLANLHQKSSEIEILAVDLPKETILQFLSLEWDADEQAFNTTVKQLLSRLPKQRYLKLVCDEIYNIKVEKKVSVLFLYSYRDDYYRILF
SRPK1, sequence (Q96SB4 whole entry): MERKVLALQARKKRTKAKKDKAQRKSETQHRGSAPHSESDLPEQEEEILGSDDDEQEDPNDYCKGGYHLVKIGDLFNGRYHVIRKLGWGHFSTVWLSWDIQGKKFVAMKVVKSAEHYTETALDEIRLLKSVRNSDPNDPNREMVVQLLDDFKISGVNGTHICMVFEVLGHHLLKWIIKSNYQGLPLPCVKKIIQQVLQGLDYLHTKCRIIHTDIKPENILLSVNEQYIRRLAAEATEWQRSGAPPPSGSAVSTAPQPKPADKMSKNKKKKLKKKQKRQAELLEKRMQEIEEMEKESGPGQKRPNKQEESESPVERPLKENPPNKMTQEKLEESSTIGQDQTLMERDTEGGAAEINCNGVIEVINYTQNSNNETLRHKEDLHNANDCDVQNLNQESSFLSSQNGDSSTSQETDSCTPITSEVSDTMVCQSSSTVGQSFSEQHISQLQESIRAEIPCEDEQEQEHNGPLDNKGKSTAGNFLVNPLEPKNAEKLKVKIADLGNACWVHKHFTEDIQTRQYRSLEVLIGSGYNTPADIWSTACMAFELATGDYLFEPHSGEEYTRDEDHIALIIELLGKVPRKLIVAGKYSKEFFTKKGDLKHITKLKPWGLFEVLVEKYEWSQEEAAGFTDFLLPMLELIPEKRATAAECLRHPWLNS
MARK3, sequence (P27448 whole entry): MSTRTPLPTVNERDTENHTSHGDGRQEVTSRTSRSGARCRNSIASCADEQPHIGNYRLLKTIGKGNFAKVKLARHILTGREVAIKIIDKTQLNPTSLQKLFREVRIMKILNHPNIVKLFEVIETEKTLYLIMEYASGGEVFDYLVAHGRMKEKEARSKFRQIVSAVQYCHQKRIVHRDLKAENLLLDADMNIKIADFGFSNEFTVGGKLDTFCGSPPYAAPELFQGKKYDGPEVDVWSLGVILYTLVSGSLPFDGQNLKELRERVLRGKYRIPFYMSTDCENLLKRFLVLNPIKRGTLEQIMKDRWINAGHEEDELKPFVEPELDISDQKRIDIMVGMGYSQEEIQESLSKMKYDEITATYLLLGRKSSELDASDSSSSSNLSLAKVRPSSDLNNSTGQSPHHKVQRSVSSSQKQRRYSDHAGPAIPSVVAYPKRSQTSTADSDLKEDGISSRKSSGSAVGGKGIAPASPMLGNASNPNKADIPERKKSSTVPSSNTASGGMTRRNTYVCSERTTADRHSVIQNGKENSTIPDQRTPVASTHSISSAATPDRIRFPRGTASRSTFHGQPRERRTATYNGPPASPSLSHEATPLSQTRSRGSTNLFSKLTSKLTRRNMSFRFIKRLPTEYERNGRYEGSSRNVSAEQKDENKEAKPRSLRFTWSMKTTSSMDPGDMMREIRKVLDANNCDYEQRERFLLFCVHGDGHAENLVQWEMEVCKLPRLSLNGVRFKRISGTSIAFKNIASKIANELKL
NDR2, sequence (Q9Y2H1 whole entry): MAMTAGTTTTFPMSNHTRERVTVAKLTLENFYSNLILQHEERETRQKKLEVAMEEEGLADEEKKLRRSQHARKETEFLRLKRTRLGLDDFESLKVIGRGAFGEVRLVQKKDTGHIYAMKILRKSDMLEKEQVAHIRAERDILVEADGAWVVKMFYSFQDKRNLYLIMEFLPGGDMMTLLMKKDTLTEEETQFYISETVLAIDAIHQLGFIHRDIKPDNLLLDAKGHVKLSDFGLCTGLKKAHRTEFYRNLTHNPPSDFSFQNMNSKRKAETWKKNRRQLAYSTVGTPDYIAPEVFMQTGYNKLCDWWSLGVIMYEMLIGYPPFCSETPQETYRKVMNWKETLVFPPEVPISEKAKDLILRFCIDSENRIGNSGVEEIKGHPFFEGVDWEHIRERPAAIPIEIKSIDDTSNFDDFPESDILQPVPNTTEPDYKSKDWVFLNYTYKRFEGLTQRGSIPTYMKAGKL

With `CN(C1CC1)S(=O)(=O)c1ccc(-c2cnc(N)c(-c3ccc4c(c3)CCNC4=O)c2)c(F)c1` [Compound I-28, 4-(6-amino-5-(1-oxo-1,2,3,4-tetrahydroisoquinolin-6-yl)pyridin-3-yl)-N-cyclopropyl-3-fluoro-N-methylbenzenesulfonamide] the inhibition at 10 µM (CaMK2d; read-out: % inhibition (range)) was 0%, the inhibition at 10 µM (CaMK2d; read-out: inhibition (10 μM)) was -31% and the “% inhibition (range)” value (MAP3K2, MAP3K3; 10 μM) was 0.0%. For the same molecule, the “inhibition (10 μM)” value (MAP3K2, MAP3K3) was 33.8%, the inhibition at 10 µM (SNRK; read-out: % inhibition (range)) was 0% and the inhibition at 10 µM (SNRK; read-out: inhibition (10 μM)) was 0%. For the same molecule, the inhibition at 10 µM (MAP2K4; read-out: % inhibition (range)) was 0%, the inhibition at 10 µM (MAP2K4; read-out: inhibition (10 μM)) was 32.5% and the inhibition at 10 µM (GSK3A; read-out: % inhibition (range)) was over 90%. For the same molecule, the inhibition at 10 µM (GSK3A; read-out: inhibition (10 μM)) was 93.5%, the “% inhibition (range)” value (p38d, p38g; 10 μM) was 0.0% and the “inhibition (10 μM)” value (p38d, p38g) was 7.7%. The inhibition at 10 µM (TLK2; read-out: % inhibition (range)) was 0%, the inhibition at 10 µM (TLK2; read-out: inhibition (10 μM)) was 14.2% and the inhibition at 10 µM (BARK1; read-out: % inhibition (range)) was 0%. It also gave an inhibition at 10 µM (BARK1; read-out: inhibition (10 μM)) of 22.3%, an inhibition at 10 µM (MSK1 domain1; read-out: % inhibition (range)) of 0% and an inhibition at 10 µM (MSK1 domain1; read-out: inhibition (10 μM)) of 5.4%. The inhibition at 10 µM (SRPK1; read-out: % inhibition (range)) was 0%, the inhibition at 10 µM (SRPK1; read-out: inhibition (10 μM)) was 19.5% and the inhibition at 10 µM (ATR; read-out: % inhibition (range)) was 0%. For the same molecule, the inhibition at 10 µM (ATR; read-out: inhibition (10 μM)) was -37.5%, the inhibition at 10 µM (MARK3; read-out: % inhibition (range)) was 0% and the inhibition at 10 µM (MARK3; read-out: inhibition (10 μM)) was 14.5%. The inhibition at 10 µM (GCN2 domain2; read-out: % inhibition (range)) was 0%, the inhibition at 10 µM (GCN2 domain2; read-out: inhibition (10 μM)) was -32.1% and the “inhibition (10 μM)” value (AurA) was 33.1%. For the same molecule, the inhibition at 10 µM (AurA; read-out: % inhibition (range)) was 0%, the inhibition at 10 µM (AurA; read-out: inhibition (10 μM)) was 27.5% and the “% inhibition (range)” value (FYN, SRC, YES; 10 μM) was 0.0%. The “inhibition (10 μM)” value (FYN, SRC, YES) was 2.2%, the “% inhibition (range)” value (MARK2, MARK3; 10 μM) was 0.0% and the “inhibition (10 μM)” value (MARK2, MARK3) was −7.8%. It also gave an inhibition at 10 µM (PIK3CB; read-out: % inhibition (range)) of 0%, an inhibition at 10 µM (PIK3CB; read-out: inhibition (10 μM)) of 1.9% and an inhibition at 10 µM (NEK7; read-out: % inhibition (range)) of 0%. For the same molecule, the inhibition at 10 µM (NEK7; read-out: inhibition (10 μM)) was 16%, the inhibition at 10 µM (PIP4K2C; read-out: % inhibition (range)) was 0% and the inhibition at 10 µM (PIP4K2C; read-out: inhibition (10 μM)) was 11.8%. It also gave an inhibition at 10 µM (CDK2; read-out: % inhibition (range)) of 0%, an inhibition at 10 µM (CDK2; read-out: inhibition (10 μM)) of 27.6% and an inhibition at 10 µM (NEK8; read-out: % inhibition (range)) of 0%. The inhibition at 10 µM (NEK8; read-out: inhibition (10 μM)) was -3.4%, the inhibition at 10 µM (MLK3; read-out: % inhibition (range)) was 0% and the inhibition at 10 µM (MLK3; read-out: inhibition (10 μM)) was 11.7%. It also gave an inhibition at 10 µM (NEK1; read-out: % inhibition (range)) of 0%, an inhibition at 10 µM (NEK1; read-out: inhibition (10 μM)) of -14.1% and an inhibition at 10 µM (CHK2; read-out: % inhibition (range)) of 0%. It also gave an inhibition at 10 µM (CHK2; read-out: inhibition (10 μM)) of 6.8%, an inhibition at 10 µM (MAP3K1; read-out: % inhibition (range)) of over 90% and an inhibition at 10 µM (MAP3K1; read-out: inhibition (10 μM)) of 91.1%. It also gave an inhibition at 10 µM (NDR2; read-out: % inhibition (range)) of 0%, an inhibition at 10 µM (NDR2; read-out: inhibition (10 μM)) of 24.2% and an inhibition at 10 µM (CLK2; read-out: % inhibition (range)) of 35 to 50%. The inhibition at 10 µM (CLK2; read-out:) was 42.7%, the IC50 (STK4 (MST1)) was under 40 nM and the IC50 (STK24 (MST3)) was 40 to 200 nM.
